According to patent publication US11439586B2, “Intratumour injection formulation” (US Nano Food & Drug INC, priority 2018, dated 2022):
In brackets after ≈: the same amount, converted by molar mass. Where two headings read alike, the source gives them in different places. Blank lines part the entries; values can stand above or below the compound they belong to.

What was measured:
[1] = Kinematic viscosity measurement of solvents; assay type: physicochemical; settings: 25 ° C.
physchem = settings: dehydrated ethanol, 25 °C, organic solvent or mixture
[2] = Solubility of antineoplastic drugs in biocompatible pharmaceutical solvents
[3] = cited from earlier work
[4] = test system: subcutaneous transplantation of tumors; settings: for Survival of group after drug administration (mice alive): 11 mice at day 0;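 on all read-outs here: nude mice carrying subcutaneous right axillary tumor cell grafts, tumor volume computed as ab^2/2, negative control given blank solvent intratumorally, animals checked daily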
Experimental: After three generations of resuscitation, cells in logarithmic growth phase were digested and suspended in complete medium. The number of cells was calculated, with the number of cells expected to be over 3×10^7/ml. The right axillary part of nude mice was disinfected by alcohol. The cell suspension was injected subcutaneously with a dose of 0.15 ml. After injection, a round translucent liquid bubble bulged up. The state of the nude mice and the growth of tumors were observed every day after injection. […] The successful nude mice were randomly divided into four groups: 11 in the positive control group, 11 in the high dose group, 11 in the low dose group and 12 in the negative control group. After grouping, intravenous injection was administered in the positive control group, with the other groups administered different tested product or blank solvent by intratumoral injection.
The longest diameter a (mm) and the shortest diameter b (mm) of tumors were measured by electronic Vernier caliper. The tumor volume of nude mice was calculated by formula: TV=ab^2/2, and the relative tumor volume (RTV) was acquired as RTV=V t/Vo. Vo was the volume of tumors before injection and V t was used to measure the volume of tumors some days after first injection. […] The mice were killed 21 days after injection for ethical reasons.

[5] = Medium Chain Triglycerides, 25 °C, oil or lipid
[6] = N-N dimethylacetylamide, 25 °C, organic solvent or mixture
[7] = PEG-400, 25 °C, organic solvent or mixture
[8] = PEG-400, 110 °C, organic solvent or mixture
[9] = Tween-80, 25 °C, organic solvent or mixture
[10] = glycerin, 25 °C, organic solvent or mixture
[11] = soybean oil, 25 °C, oil or lipid
[12] = PEG-300, 25 °C, organic solvent or mixture

- Kinematic viscosity measurement [1]: 1.41 mm^2/s
Structure (SMILES): CCO [Dehydrated ethanol]

- solubility (physchem): 118000 to 126000 µg/mL (≈ 147 to 156 mM)
- solubility [2, 5]: < 10000 µg/mL
- solubility ([2]; Medium Chain Triglycerides, 105 °C, oil or lipid): 30000 to 35000 µg/mL (≈ 37.1 to 43.3 mM)
- solubility [2, 6]: > 50000 µg/mL
- solubility [2, 7]: < 10000 µg/mL
- solubility [2, 8]: > 40000 µg/mL
- solubility [2, 9]: < 40000 µg/mL
- solubility ([2]; Tween-80, 120 °C, organic solvent or mixture): > 40000 µg/mL
- solubility [2, 10]: < 1000 µg/mL
- solubility [2, 11]: < 10000 µg/mL
- solubility ([2]; soybean oil, 140 °C, oil or lipid): 12500 to 15000 µg/mL (≈ 15.5 to 18.6 mM)
Structure (SMILES): CC(=O)O[C@@]12CO[C@@H]1C[C@H](O)[C@@]1(C)C(=O)[C@H](O)C3=C(C)[C@@H](OC(=O)[C@H](O)[C@@H](NC(=O)OC(C)(C)C)c4ccccc4)C[C@@](O)([C@@H](OC(=O)c4ccccc4)[C@H]21)C3(C)C [Docetaxel]

- Kinematic viscosity measurement [1]: 908.8 mm^2/s
Structure (SMILES): OCC(O)CO [Glycerol]

- solubility (physchem): < 130 µg/mL
- solubility [2, 5]: < 200 µg/mL
- solubility ([2]; Medium Chain Triglycerides, 200 °C, oil or lipid): < 200 µg/mL
- solubility [2, 6]: > 105000 µg/mL
- solubility [2, 12]: < 10000 µg/mL
- solubility ([2]; PEG-300, 140 °C, organic solvent or mixture): > 50000 µg/mL
- solubility [2, 9]: < 1700 µg/mL
- solubility [2, 10]: < 1000 µg/mL
Structure (SMILES): COc1cc([C@@H]2c3cc4c(cc3[C@@H](O[C@@H]3O[C@@H]5CO[C@@H](c6cccs6)O[C@H]5[C@H](O)[C@H]3O)[C@H]3COC(=O)[C@H]23)OCO4)cc(OC)c1O [Teniposide]

Continued, compound first:

Structure (SMILES): CC[C@@]1(O)C(=O)OCc2c1cc1n(c2=O)Cc2cc3cc(O)ccc3nc2-1 [Hydroxycamptothecine]
- solubility (physchem): < 1000 µg/mL
- solubility [2, 5]: < 1000 µg/mL
- solubility [2, 6]: ~71400 µg/mL (≈ 196 mM)
- solubility [2, 12]: < 10000 µg/mL
- solubility ([2]; PEG-300, 90 °C, organic solvent or mixture): > 10000 µg/mL
- solubility [2, 9]: < 1000 µg/mL
- solubility [2, 10]: < 1000 µg/mL

Structure (SMILES): CC(=O)O[C@H]1C(=O)[C@@]2(C)[C@H]([C@H](OC(=O)c3ccccc3)[C@]3(O)C[C@H](OC(=O)[C@H](O)[C@@H](NC(=O)c4ccccc4)c4ccccc4)C(C)=C1C3(C)C)[C@]1(OC(C)=O)CO[C@@H]1C[C@@H]2O [Paclitaxel]
- solubility (physchem): > 6000 µg/mL
- intravenous LD50 ([3]; mice): 12 mg/kg
- solubility [2, 5]: < 6000 µg/mL
- solubility ([2]; Medium Chain Triglycerides, 120 °C, oil or lipid): > 6000 µg/mL
- solubility [2, 6]: > 50000 µg/mL
- solubility [2, 7]: < 40000 µg/mL
- solubility [2, 8]: > 40000 µg/mL
- solubility [2, 9]: < 6000 µg/mL
- solubility ([2]; Tween-80, 110 °C, organic solvent or mixture): > 6000 µg/mL
- solubility [2, 10]: < 1000 µg/mL
- solubility [2, 11]: < 6000 µg/mL
- solubility ([2]; soybean oil, 145 °C, oil or lipid): > 6000 µg/mL

Structure (SMILES): COc1cc([C@@H]2c3cc4c(cc3[C@@H](O[C@@H]3O[C@@H]5CO[C@@H](C)O[C@H]5[C@H](O)[C@H]3O)[C@H]3COC(=O)[C@H]23)OCO4)cc(OC)c1O [etoposide]
- Intravenous LD50 of the mice [3]: Intravenous LD50 of the mice: 15 mg/kg
- 30% ST, LDG/PCG ([4]; 30% survival time, low dose group (intratumoral) to positive control group (intravenous)): 200% (18/9 = 2)
- Average Tumor Volume V3 ([4]; High dosage (intratumoral, 55 mg/kg), 3 days after first injection): 268.5 mm^3
- Average Tumor Volume V6 ([4]; High dosage (intratumoral, 55 mg/kg), 6 days after first injection): 364.2 mm^3
- HV6/NV6, tumor volume relative to negative control ([4]; High dosage (intratumoral, 55 mg/kg), 6 days after injection): HV6/NV6 = 90.2%
- Average Tumor Volume V9 ([4]; High dosage (intratumoral, 55 mg/kg), 9 days after first injection): 472.5 mm^3
- Average Tumor Volume V11 ([4]; High dosage (intratumoral, 55 mg/kg), 11 days after first injection): 384.0 mm^3
- Average Tumor Volume V12 ([4]; High dosage (intratumoral, 55 mg/kg), 12 days after first injection): 276.3 mm^3
- HV12/NV, tumor volume relative to negative control ([4]; High dosage (intratumoral, 55 mg/kg), 12 days after injection): HV12/NV = 38.0%
- Average Tumor Volume V0 ([4]; High dosage (intratumoral, 55 mg/kg), before injection): 174.4 mm^3
- Survival of group after drug administration (mice alive) ([4]; High dosage intratumoral, Day 6): 11
- Survival of group after drug administration (mice alive) ([4]; High dosage intratumoral, Day 9): 11
- Survival of group after drug administration (mice alive) ([4]; High dosage intratumoral, Day 11): 11
- Survival of group after drug administration (mice alive) ([4]; High dosage intratumoral, Day 12): 2
- Survival of group after drug administration (mice alive) ([4]; High dosage intratumoral, Day 15): 0
- Survival of group after drug administration (mice alive) ([4]; IV. group, Day 6): 11
- Survival of group after drug administration (mice alive) ([4]; IV. group, Day 9): 9
- Survival of group after drug administration (mice alive) ([4]; IV. group, Day 11): 2
- Survival of group after drug administration (mice alive) ([4]; IV. group, Day 12): 0
- Survival of group after drug administration (mice alive) ([4]; Low dosage intratumoral, Day 6): 11
- Survival of group after drug administration (mice alive) ([4]; Low dosage intratumoral, Day 9): 11
- Survival of group after drug administration (mice alive) ([4]; Low dosage intratumoral, Day 11): 11
- Survival of group after drug administration (mice alive) ([4]; Low dosage intratumoral, Day 12): 11
- Survival of group after drug administration (mice alive) ([4]; Low dosage intratumoral, Day 15): 6
- Survival of group after drug administration (mice alive) ([4]; Low dosage intratumoral, Day 18): 4
- Survival of group after drug administration (mice alive) ([4]; Low dosage intratumoral, Day 19): 3
- Survival of group after drug administration (mice alive) ([4]; Low dosage intratumoral, Day 20): 3
- MST ([4]; intravenous group (positive control)): 9 days
- outcome of local intratumor injection, in words ([4]; low dosage group): superior to the intravenous injection and the negative control group
- mice surviving ([4]; low dosage group (11 mice), 20 days after injection): three
- mice still alive ([4]; low dosage group (11 mice), 21 days after first injection): three
- MST ([4]; low dosage group, intratumoral injection): 15 days
- MST, HDG/PCG ([4]; median survival time, high dose group (intratumoral) to positive control group (intravenous)): 122% (11/9 = 1.22)
- LV12/NV (tumor volume, low dose group to negative control group) ([4]; twelve (12) days after injection, intratumoral injection, low dose group): 49.3%
